The source of these data is paper PMC9399058, “Preclinical evaluation of FAP-2286 for fibroblast activation protein targeted radionuclide imaging and therapy” (European Journal of Nuclear Medicine and Molecular Imaging, 2022).

Where two headings read alike, the source gives them in different places.

In one data set the test system is HEK-FAP xenograft tumors. The data set is described as follows: SPECT/CT biodistribution of 111In-labeled tracers in HEK-FAP tumor-bearing mice. In kind it is in vivo, mouse. Conditions: every 24 h; HEK-FAP mouse tumor model; 111In-FAPI-04 (Supplementary Fig. S6). On the procedure: (§1) HEK-FAP cell line was generated using the vector pTAR to insert FAP complementary DNA by recombinase-mediated cassette exchange into the pre-tagged HEK293 cells (InSCREENeX). For in vivo HEK-FAP studies, female nude or SCID beige mice (Charles River Laboratories) were subcutaneously implanted with 5 × 10^6 HEK-FAP cells in 150 µL serum-free media:Matrigel (1:1) (Corning). For the patient-derived xenograft (PDX) efficacy study, female NMRI nu/nu mice (Janvier Labs) were subcutaneously implanted with Sarc4809 fragments (Experimental Pharmacology & Oncology Berlin-Buch). All animal experiments were carried out under licenses approved by the respective authorities and in compliance with guidelines on animal welfare.
(§2) Thirty megabecquerels (30 MBq/nmol) ^111In-FAP-2286 (n = 9) or ^111In-FAPI-04 (n = 6) was injected intravenously (IV) into HEK-FAP tumor-bearing mice and the distribution of the radiotracers was assessed using the NanoSPECT/computed tomography (CT) system (Mediso). For PET imaging, 10 MBq of ^68Ga-FAP-2286 or ^68Ga-FAPI-46 (10 MBq/nmol) was given IV into HEK-FAP tumor-bearing mice (n = 3) followed by PET/CT analysis using the nanoScan PET/CT system (Mediso). For SPECT imaging of ^177Lu-labeled FAP-2286 or ^177Lu-labeled FAPI-46, 30 MBq was administered IV (30 MBq/nmol; n = 3) and the distribution of the radiotracers was assessed using the nanoScan SPECT/CT system (Mediso).
(§3) The animal studies were conducted in different laboratories. ^111In-Imaging and efficacy studies using the HEK-FAP model and different doses of ^177Lu-FAP-2286 as well as the Sarc4809 PDX efficacy study took place at Berlin Experimental Imaging Center (BERIC, Germany). The Sarc4809 model was originally derived from a primary lesion of undifferentiated pleomorphic sarcoma. These studies were performed in either female swiss nude (Charles River Laboratories, France – ^111In-Imaging), NMRI nude (Janvier Labs, France – PDX efficacy study) or SCID beige mice (Charles River Laboratories, Germany - ^111In-Imaging). ^68Ga-Imaging and comparative studies with ^177Lu labeled FAP-2286 and FAPI-46 were performed at Minerva Imaging ApS, Denmark using female athymic nude mice (Charles River Laboratories, Germany). For all experiments animals were ordered with an age of approximately 6 weeks. Animals were allowed an acclimatization period of at least one week prior to inoculation. Animals were housed in an animal room with 12 hours light and 12 hours darkness with free access to food and water. A maximum number of 5 animals were housed in the same cage, cages were equipped with nesting material and plastic or paper houses for hiding. Each cage was labeled with study ID, group and animal numbers and test compound. For efficacy studies animals were randomized according to tumor size. Animals were checked daily for any signs of illness or abnormal behavior. Main humane endpoints were defined as tumor volumes > 1500 mm^3, tumor burden > 10% of animal weight, body weight loss >15% and tumor ulceration. When reaching one of these criteria the animal was sacrificed by cervical dislocation. All animal experiments were approved either by the Regional Office for Health and Social Affairs Berlin (LAGeSo), Germany or the National Animal Experiments Inspectorate under the Ministry of Environment and Food of Denmark.
(§4) Imaging and image analysis were performed as described. During the scan, mice were kept under isoflurane anesthesia, and body temperature was maintained under warm air. The following acquisition parameters were used for the respective imaging modality.
(§5) For quantification, VivoQuant (InviCRO) was used to draw regions of interest (ROIs) in relevant tissues, with a ROI drawn over the left ventricle of the heart to serve as blood pool surrogate. […]

Data set [1] in a line: SPECT/CT biodistribution and tumor dosimetry of 177Lu-labeled tracers in HEK-FAP tumor-bearing mice. The format is in vivo, mouse. Particulars: mouse, in vivo, iv, 30 MBq IV, HEK-FAP mice; for tissue uptake at 72 h: 72 h p.i. Here is the method:
as §1, §2, §3, §4, §5

A further data set relates to HEK-FAP xenografts. The description is as above. The format is in vivo, mouse. Here is the method:
as §1, §2, §3, §4, §5

The next data set has as its system Sarc4809 PDX. Nature of the data set: Efficacy study in the Sarc4809 sarcoma PDX model. In kind it is in vivo, mouse. Particulars: 30 MBq single IV dose, Sarc4809 mice. On the procedure: as §1
A single dose of the indicated treatments was administered IV on day 0, with vehicle (saline), nonradioactive ^natLu-FAP-2286, 30 or 60 MBq ^177Lu-FAP-2286 (30 MBq/nmol and 60 MBq/nmol, respectively), or 30 MBq ^177Lu-FAPI-46 (30 MBq/nmol). Tumor length and width were measured by caliper, and tumor volume was calculated as 0.5 × (length × width^2). Tumor growth and body weight were monitored 3 times weekly. […]
Calculation of relative tumor volume. Relative tumor volume (RTV as %) is calculated according to the following formula: RTV = (Tᵢ/ T0) × 100, where Tᵢ is the tumor volume at day i and T0 is the tumor volume at day 0. […]

The test system of the next data set is neoplastic lesions. The arrangement: method as in PMID 34168013. Particulars: first-in-human experience of 11 patients ref 51; cited from earlier work.
The next data set deals with HEK-FAP cells. Nature of the data set: Fluorescence microscopy of cellular internalization and retention in HEK-FAP cells. The format is cell-based, human. Conditions: 5 nM for 1 h at 37 °C, then compound-free medium up to 72 h. On the procedure:
HEK-FAP cells were seeded on chamber slides (ibidi) and incubated with 5 nM of AF488-labeled FAP-2286 or FAPI-46 for 1 h at 37 °C. Cells were then washed and further incubated for various timepoints. Cell nuclei were stained with 1 µg/mL Hoechst 33342 dye. Lysosomes were stained using LysoTracker Deep Red (Thermo Fisher Scientific). Images were acquired by using the BZ X800E fluorescence microscope (Keyence) at 40 × magnification.
For fluorescence microscopy assay, HEK-FAP cells were seeded in Poly-D-Lysine-coated 8-well chamber slides at 1 x 10^5 cells per well and incubated for 3 days at 37°C, 5% CO2 in a humified incubator. Attached cells were incubated for 1 hour with 5 nM AF488-labeled FAP-2286 or FAPI-46 in incubation buffer at 37°C. For visualization of lysosomes and late endosomes, cells were stained with LysoTracker DeepRed (Thermo Fisher) for 30 minutes at 37 °C.
Cells were washed three times and incubation buffer was added. Following various incubation periods, cells were washed with HBSS and incubated for 5 min with 1 µg/mL Hoechst 33342 dye for nuclei counterstaining at room temperature.
Fluorescence images were acquired by using a Keyence BZ-X800E fluorescence microscope with 40x magnification.

On to `N#C[C@@H]1CC(F)(F)CN1C(=O)CNC(=O)c1ccnc2ccc(OCCCN3CCN(C(=O)CN4CCN(CC(=O)O)CCN(CC(=O)O)CCN(CC(=O)O)CC4)CC3)cc12` [FAPI-04, reference compound], for which, in the data set on HEK-FAP xenograft tumors, the tumor clearance rate result is on record as “approximately 50%”.
In the case of `CCCCCC(=O)N[C@H]1CSCc2cc(CSCCNC(=O)CN3CCN(CC(=O)O)CCN(CC(=O)O)CCN(CC(=O)O)CC3)cc(c2)CSC[C@@H](C(=O)O)NC(=O)[C@H](Cc2ccccc2)NC(=O)[C@H](CCC(N)=O)NC(=O)[C@H]([C@@H](C)O)NC(=O)[C@@H]2CCCN2C(=O)[C@@H]2CCCN2C1=O` [^177Lu-FAP-2286, metal not drawn], the tissue uptake at 3 h is 2.2 %ID/g in data set [1] (3 h after injection, read-out: kidney accumulation) and 21.1 %ID/g in data set [1] (3 h p.i., n=3, read-out: tumor uptake). Besides, the tissue uptake at 72 h was determined as 16.4 %ID/g in data set [1] (n=3, read-out: tumor uptake) and 0.6 %ID/g in data set [1] (read-out: kidney accumulation). Moreover, the tumor retention in the data set with HEK-FAP xenografts (HEK-FAP mouse model, SPECT/CT image quantification) is recorded as no less than 72 h. In the data set with HEK-FAP xenografts (HEK-FAP tumor self-dose), this compound came in with a tumor absorbed dose of 2.8 Gy/MBq. Also, the “time-integrated activity coefficient (TIAC), tumor” value in the data set with HEK-FAP xenografts (HEK-FAP tumor, calculated from SPECT/CT, extrapolated beyond 72 h) was 11.2 MBq*h/MBq. Also, the “Max. BWL, Day 2” value in the data set with Sarc4809 PDX came to 3%. Besides, in the data set with neoplastic lesions, the “SPECT/CT biodistribution in patients” value is “significant tumor uptake and long retention”.
Take `CCCCCC(=O)N[C@H]1CSCc2cc(CSCCNC(=O)CN3CCN(CC(=O)O)CCN(CC(=O)O)CCN(CC(=O)O)CC3)cc(c2)CSC[C@@H](C(=O)N[C@@H](CCCCNC(=O)c2ccc(-c3c4ccc(=N)c(S(=O)(=O)O)c-4oc4c(S(=O)(=O)O)c(N)ccc34)c(C(=O)O)c2)C(N)=O)NC(=O)[C@H](Cc2ccccc2)NC(=O)[C@H](CCC(N)=O)NC(=O)[C@H]([C@@H](C)O)NC(=O)[C@@H]2CCCN2C(=O)[C@@H]2CCCN2C1=O` [AF488-FAP-2286]: the “cellular retention by fluorescence microscopy” value with HEK-FAP cells is “retained in HEK-FAP cells and secluded in endosomes out to 72 h”.
